Data as given in US10709667B2, “Hydrogel encapsulated cells and anti-inflammatory drugs” (Massachusetts Institute of Technology, priority 2011, dated 2020).

Legend:
[1] = system: C57/B6 mice with streptozotocin (STZ)-induced diabetes; experiment: Transplantation of encapsulated rat islets into STZ-induced diabetic mice, daily blood glucose monitoring; type: in vivo; conditions: daily blood glucose over 2 months, marginal mass of islets, intraperitoneal, n=6-7
Experimental: Alginate with high gluronic acid content SLG20 (Novamatrix, FMC Polymer, Drammen, Norway) was dissolved in sterile 0.9% (w/v) NaCl to give an alginate solution of 1.5% (w/v). To prepare hybrid drug-islet capsule, 1.5% (w/v) alginate was mixed with curcumin (Sigma Aldrich) at 0.3-1.0 mg/ml or with dexamethasone (Sigma Aldrich) at 1-2 mg/ml and stirred for 3-4 days to ensure that the drug is homogenously dispersed. During this mixing period, curcumin-alginate mixture was wrapped in aluminium foil to avoid light exposure which might oxidize this drug. One day after islet isolation, islets were washed twice with Ca-free Krebs and mixed with the alginate suspension with or without dispersed drug at a pre-cross-linking islet density of approximately 750-1000 islets/ml. […]
Male Sprague—Dawley rats, 200-250 g, also obtained from Charles River Laboratories, were used as islet donors. […] The mice were observed daily till after the final STZ injection when they are weighed and their blood glucose levels determined. Mice were confirmed diabetic if their non-fasted blood glucose level rose above 300 mg/dL for two consecutive daily readings. […]
Xenogeneic transplants of encapsulated rat islets to diabetic mice recipients were performed to examine the reversibility of diabetes. […] Shortly thereafter, islet-containing capsules were sampled in quadruplicate, the total islets number was counted. […]

[2] = system: RAW 264.7 macrophages; experiment: Co-culture of macrophages and encapsulated islets: macrophage proliferation; type: cell-based; conditions: hybrid alginate capsules with 2 mg/ml dexamethasone or 1 mg/ml curcumin, 4 days co-culture
Experimental: (§1) RAW 264.7 macrophages were cultured in RPMI-1640 medium supplemented with 10% FBS, 100 units/ml penicillin and 100 μg/ml streptomycin (Invitrogen). The cells were sub-cultured every 2-3 days. 0.2 million macrophages in 3 ml of fresh culture medium were seeded into each well of a six-well tissue-culture treated polystyrene plate and allowed to adhere to the plate surface over night. The culture medium was removed and encapsulated islets were added in 3 ml of fresh medium to each well with adherent macrophages. Co-culturing of encapsulated islets with macrophages was maintained for four days. Afterwards, supernatant samples were collected and frozen at −20° C. for future insulin analysis with an insulin ELISA kit (ALPCO diagnostics). Encapsulated islets were collected into new plates. Both encapsulated islets and remaining adherent macrophages were washed in HEPES buffer and subjected to live-dead fluorescent staining (Invitrogen) for viability assessment.
(§2) An in vitro experiment was designed to test whether the presence of immune cells affects insulin secretion by islets. Hybrid alginate capsules containing islet cells and 2 mg/ml of dexamethasone or 1 mg/ml of curcumin were fabricated. Islet cells were encapsulated alone as a positive control. As a negative control, encapsulated islets were co-cultured with a macrophage cell line adherent to the plate's bottom. […]

[3] = system: encapsulated islets; type: cell-based; conditions: hybrid alginate capsules with 2 mg/ml dexamethasone or 1 mg/ml curcumin, 4 days co-culture, FIG. 5
Experimental: as §1, §2

[4] = system: islet cells in retrieved capsules; experiment: Insulin secretion from retrieved capsules; type: in vivo; conditions: 24 hours, FIG. 10
Experimental: Sixty days after transplantation of islet-containing capsules, the mice from example 6 were sacrificed by CO2 asphyxiation. A lapratomy was performed to expose the abdominal cavity and capsules were retrieved by an abdominal lavage with HEPES buffer. The abdominal cavity was examined closely to identify remaining capsules, which if found were gently removed using atraumatic tweezers. The retrieved capsules were subsequently washed several times in HEPES buffer and imaged at 2× magnification using an EVOS brightfield microscope (AMG). Finally, capsules were transferred into a 1.5 ml Eppendorf tube, and frozen at −20° C. for future analysis. Insulin secretion was measured from the retrieved capsules for 24 hours.

[5] = system: fibrosis on capsules; experiment: Fibrosis formation on capsules retrieved 60 days after transplantation (observation, DNA fluorescent staining); type: in vivo, mice; conditions: FIG. 9
Experimental: Sixty days after transplantation of islet-containing capsules, the mice from example 6 were sacrificed by CO2 asphyxiation. A lapratomy was performed to expose the abdominal cavity and capsules were retrieved by an abdominal lavage with HEPES buffer. The abdominal cavity was examined closely to identify remaining capsules, which if found were gently removed using atraumatic tweezers. The retrieved capsules were subsequently washed several times in HEPES buffer and imaged at 2× magnification using an EVOS brightfield microscope (AMG). Finally, capsules were transferred into a 1.5 ml Eppendorf tube, and frozen at −20° C. for future analysis.
50 μl of retrieved capsules (120-150 alginate capsules) were transferred to each well of a 24-well Millicell® cell culture insert (Millipore) using wide-orifice pipette tips (Fisher Scientific, Pittsburgh, Pa., USA). The capsules were incubated at 37° C. for 45 min in 800 μl of 0.001 mg/ml Hoersch 33342 dye (Invitrogen) prepared from stock solution by dilution with HEPES buffer. Afterwards, these capsules were washed four times with HEPES buffer. […] Finally, fluorescent signals from the stained capsules were obtained using a Tecan UV-VIS absorbance plate reader at with the excitation and emission wavelengths of 350 nm and 460 nm respectively.
A rigorous quantification technique was developed to assess fibrosis on capsules via DNA fluorescent staining. […]

## COc1cc(/C=C/C(=O)CC(=O)/C=C/c2ccc(O)c(OC)c2)ccc1O [curcumin]
[1]
  glycemic control: improved glycemic control
[2]
  macrophages proliferation: hindered macrophages proliferation
[3]
  insulin secretion from encapsulated islets co-cultured with macrophages: restored insulin secretion
[4]
  insulin secretion from retrieved capsules: greatly improved insulin secretion
[5]
  fibrosis by DNA fluorescence of retrieved capsules: reduced fibrosis with statistical significance
